# Results published in patent publication US8399480B2, “Hydroxymethyl pyrrolidines as beta 3 adrenergic receptor agonists” (Merck Sharp & Dohme Corp., priority 2008, dated 2013).
# Molecular target: T1, human β3 adrenergic receptor (Homo sapiens, UniProt P13945)
# T1 construct: expressed in transfected cells; host or cells: Chinese hamster ovary (CHO) cells, stably transfected
# Assay: Functional assay: cAMP production (LANCE TR-FRET) in CHO cells stably transfected with cloned β3 adrenergic receptor
# Type: cell-based
# Settings: Table 4; human β3 functional activity; read-out: Human β Binding
# Experimental: Chinese hamster ovary (CHO) cells, stably transfected with the cloned β-adrenergic receptor (β1, β2 or β3) are harvested after 3 days of subculturing. Harvesting of cells is done with Enzyme-free Dissociation Media (Specialty Media). Cells are then counted and resuspended in assay buffer (Hank's Balanced salt solution supplemented with 5 mM HEPES, 0.1% BSA) containing a phosphodiesterase inhibitor (IBMX, 0.6 mM). The reaction is initiated by mixing 6,000 cells in 6 μL with 6 μL Alexa Fluor labeled cAMP antibody (LANCE™ kit) which is then added to an assay well containing 12 μL of compound (diluted in assay buffer to 2× final concentration). The reaction proceeds for 30 min at room temperature and is terminated by the addition of 24 μL detection buffer (LANCE™ kit). The assay plate is then incubated for 1 h at room temperature and time-resolved fluorescence measured on a Perkin Elmer Envision reader or equivalent. The unknown cAMP level is determined by comparing fluorescence levels to a cAMP standard curve.
# The non-selective, full agonist β-adrenergic ligand isoproterenol is used at all three receptors to determine maximal stimulation. […] Data are analyzed using Microsoft Excel and Graphpad Prism or an internally developed data analysis software package.
# T1 sequence (P13945 whole entry): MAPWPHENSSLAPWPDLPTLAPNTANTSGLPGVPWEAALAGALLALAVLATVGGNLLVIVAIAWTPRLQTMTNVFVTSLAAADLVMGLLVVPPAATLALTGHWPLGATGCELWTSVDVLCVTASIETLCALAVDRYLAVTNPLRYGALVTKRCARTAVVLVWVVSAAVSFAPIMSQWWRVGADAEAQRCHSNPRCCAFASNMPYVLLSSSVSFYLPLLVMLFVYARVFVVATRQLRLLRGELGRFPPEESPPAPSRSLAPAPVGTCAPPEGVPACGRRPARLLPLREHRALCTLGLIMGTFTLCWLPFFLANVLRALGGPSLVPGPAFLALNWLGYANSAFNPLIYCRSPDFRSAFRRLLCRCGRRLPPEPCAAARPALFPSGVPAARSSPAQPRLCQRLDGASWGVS
row,EC50 [nM],SMILES
1,11 to 100,O=C(Cc1nnn[nH]1)Nc1ccc(C[C@@H]2CC[C@H]([C@H](O)c3ccccc3)N2)cc1 [Example 75]
2,1 to 10,O=C(CN1CCCC1=O)Nc1ccc(C[C@@H]2CC[C@H]([C@H](O)c3ccccc3)N2)cc1 [Example 87]
3,1 to 10,O=C(CN1CCSC1=O)Nc1ccc(C[C@@H]2CC[C@H]([C@H](O)c3ccccc3)N2)cc1 [Example 91]
4,11 to 100,Cc1ccc(OCC(=O)Nc2ccc(C[C@@H]3CC[C@H]([C@H](O)c4ccccc4)N3)cc2)nn1 [Example 95]
5,1 to 10,NC(=O)c1nn(CC(=O)Nc2ccc(C[C@@H]3CC[C@H]([C@H](O)c4ccccc4)N3)cc2)c(=O)c2ccccc12 [Example 54]
6,11 to 100,Cc1csc(CC(=O)Nc2ccc(C[C@@H]3CC[C@H]([C@H](O)c4ccccc4)N3)cc2)n1 [Example 8]
7,1000 to 3000,O=C(Cc1ccncc1)Nc1ccc(C[C@@H]2CC[C@H]([C@H](O)c3ccccc3)N2)cc1 [Example 45]
8,11 to 100,O=C(Cc1n[nH]c(=O)[nH]1)Nc1ccc(C[C@@H]2CC[C@H]([C@H](O)c3ccccc3)N2)cc1 [Example 68]
9,< 1,O=C(Cn1c(=O)[nH]c2ccccc2c1=O)Nc1ccc(C[C@@H]2CC[C@H]([C@H](O)c3ccccc3)N2)cc1 [Example 50]

# Continued, molecule first:
row,SMILES,EC50 [nM]
1,O=C(Nc1ccc(C[C@@H]2CC[C@H]([C@H](O)c3ccccc3)N2)cc1)C1CCCN1c1nc2ccccc2s1 (stereo partly shown) [Example 40],11 to 100
2,O=C(Cc1nnc(-c2ccn[nH]2)[nH]1)Nc1ccc(C[C@@H]2CC[C@H]([C@H](O)c3ccccc3)N2)cc1 [Example 27],1 to 10
3,O=C(Nc1ccc(C[C@@H]2CC[C@H]([C@H](O)c3ccccc3)N2)cc1)c1ccccc1-c1nnn[nH]1 [Example 13],11 to 100
4,Cn1nccc1-c1nnc(CC(=O)Nc2ccc(C[C@@H]3CC[C@H]([C@H](O)c4ccccc4)N3)cc2)[nH]1 [Example 28],11 to 100
5,O=C(Nc1ccc(C[C@@H]2CC[C@H]([C@H](O)c3ccccc3)N2)cc1)C1CCCN1c1cccc(I)c1 (stereo partly shown) [Example 39],11 to 100

# Same assay, conditions: Table 5; read-out: Human β3 Functional
row,EC50 [nM],SMILES
1,1 to 10,"O=C(Nc1ccc(C[C@@H]2CC[C@H]([C@H](O)c3ccccc3)N2)cc1)C1CCCc2ccnn21 (single isomer, unassigned) [Example 156]"
2,1 to 10,"Cc1noc2c1CCC2C(=O)Nc1ccc(C[C@@H]2CC[C@H]([C@H](O)c3ccccc3)N2)cc1 (single isomer, unassigned) [Example 141]"
3,11 to 100,"Cc1nc2c(s1)CCCC2C(=O)Nc1ccc(C[C@@H]2CC[C@H]([C@H](O)c3ccccc3)N2)cc1 (single isomer, unassigned) [Example 120]"
4,< 1,"O=C(Nc1ccc(C[C@@H]2CC[C@H]([C@H](O)c3ccccc3)N2)cc1)C1CCc2sc(F)nc21 (single isomer, unassigned) [Example 147]"
5,< 1,Nc1nc(C(CCF)C(=O)Nc2ccc(CC3CCC(C(O)c4ccccc4)N3)cc2)cs1 (stereo not shown) [Example 222]
6,11 to 100,"CC(C(=O)Nc1ccc(C[C@@H]2CC[C@H]([C@H](O)c3ccccc3)N2)cc1)n1cc(C(N)=O)nn1 (single isomer, unassigned) [Example 193]"
7,101 to 1000,"O=C(Nc1ccc(C[C@@H]2CC[C@H]([C@H](O)c3ccccc3)N2)cc1)C1CCc2ccccc21 (single isomer, unassigned) [Example 111]"
8,11 to 100,"Cc1noc2c1CCC2C(=O)Nc1ccc(C[C@@H]2CC[C@H]([C@H](O)c3ccccc3)N2)cc1 (single isomer, unassigned) [Example 140]"
9,1 to 10,"CC(C(=O)Nc1ccc(C[C@@H]2CC[C@H]([C@H](O)c3ccccc3)N2)cc1)n1cncn1 (single isomer, unassigned) [Example 176]"
10,11 to 100,"O=C(Nc1ccc(C[C@@H]2CC[C@H]([C@H](O)c3ccccc3)N2)cc1)C1CCc2cn[nH]c21 (single isomer, unassigned) [Example 137]"
11,1 to 10,"CC(C(=O)Nc1ccc(CC2CCC(C(O)c3ccccc3)N2)cc1)c1ccn(C)n1 (single isomer, unassigned) [Example 187]"
12,< 1,C[C@@H](C(=O)Nc1ccc(C[C@@H]2CC[C@H]([C@H](O)c3ccccc3)N2)cc1)c1csc(N)n1 [Example 104]
13,11 to 100,"CC(C(=O)Nc1ccc(C[C@@H]2CC[C@H]([C@H](O)c3ccccc3)N2)cc1)n1cc(C(=O)O)nn1 (single isomer, unassigned) [Example 190]"
14,1 to 10,"O=C(Nc1ccc(C[C@@H]2CC[C@H]([C@H](O)c3ccccc3)N2)cc1)C1CCc2sc(Br)nc21 (single isomer, unassigned) [Example 144]"
15,101 to 1000,"CC(C(=O)Nc1ccc(CC2CCC(C(O)c3ccccc3)N2)cc1)c1ccn(C)n1 (single isomer, unassigned) [Example 186]"

# Further lines, the molecule ahead of its results:
row,SMILES,EC50 [nM]
1,"CC(C(=O)Nc1ccc(C[C@@H]2CC[C@H]([C@H](O)c3ccccc3)N2)cc1)n1cnc2ccccc2c1=O (single isomer, unassigned) [Example 166]",1 to 10
2,"O=C(Nc1ccc(C[C@@H]2CC[C@H]([C@H](O)c3ccccc3)N2)cc1)C1CCc2cccnc21 (single isomer, unassigned) [Example 132]",< 1
3,"CC(C(=O)Nc1ccc(C[C@@H]2CC[C@H]([C@H](O)c3ccccc3)N2)cc1)n1ncccc1=O (single isomer, unassigned) [Example 162]",1 to 10
4,"CC(Oc1cccnn1)C(=O)Nc1ccc(C[C@@H]2CC[C@H]([C@H](O)c3ccccc3)N2)cc1 (single isomer, unassigned) [Example 215]",11 to 100
5,"COC(=O)c1cn(C(C)C(=O)Nc2ccc(C[C@@H]3CC[C@H]([C@H](O)c4ccccc4)N3)cc2)nn1 (single isomer, unassigned) [Example 188]",1 to 10
6,"COC(=O)c1cnnn1C(C)C(=O)Nc1ccc(C[C@@H]2CC[C@H]([C@H](O)c3ccccc3)N2)cc1 (single isomer, unassigned) [Example 194]",11 to 100
7,"COC(=O)c1cnnn1C(C)C(=O)Nc1ccc(C[C@@H]2CC[C@H]([C@H](O)c3ccccc3)N2)cc1 (single isomer, unassigned) [Example 195]",1 to 10

# Same assay, conditions: Table 7; β3AR-cAMP; read-out: Human β3 Functional
row,EC50 [nM],SMILES
1,101 to 1000,O=S(=O)(Nc1ccc(C[C@@H]2CC[C@H]([C@H](O)c3ccccc3)N2)cc1)c1ccc(-n2cccn2)cc1 [Example 240]
2,1000 to 3000,O=S(=O)(Cc1cccnc1)Nc1ccc(C[C@@H]2CC[C@H]([C@H](O)c3ccccc3)N2)cc1 [Example 249]

# Same assay, conditions: Table 9; read-out: Human β^3 Functional
row,EC50 [nM],SMILES
1,< 1,CC(NC(=O)c1ncccn1)C(=O)Nc1ccc(C[C@@H]2CC[C@H]([C@H](O)c3ccccc3)N2)cc1 (stereo partly shown) [Example 268]

# Same assay, conditions: Table 10; β3AR-cAMP; read-out: Human β3 Functional
row,EC50 [nM],SMILES
1,< 1,"Nc1nc2c(s1)CCC2C(=O)Nc1ccc(CC2CCC(C(O)c3cccc(F)c3)N2)cc1 (single isomer, unassigned) [Example 277]"

# Same assay, conditions: given as a range; cAMP, CHO cells; read-out: human β3 functional activity
row,EC50 [nM],SMILES
1,11 to 100,"COc1cccc(NC(=O)Nc2ccc(C[C@@H]3CC[C@H]([C@H](O)c4ccccc4)N3)cc2)c1 [Example 251, N-[4-({(2S,5R)-5-[(R)-hydroxy(phenyl)methyl]pyrrolidin-2-yl}methyl)phenyl]-N′-(3-methoxyphenyl)urea]"
2,11 to 100,"Nc1nc(CC(=O)Nc2ccc(C[C@H]3CC[C@H]([C@H](O)c4ccccc4)N3)cc2)cs1 [Example 3, 2-(2-Amino-1,3-thiazol-4-yl)-N-[4-({(2R,5R)-[(R)hydroxy(phenyl)methyl]pyrrolidinyl}methyl)phenyl]acetamide]"

# Same assay, conditions: human β3 functional activity, shown as ranges; Table 14; read-out: Human β3 Functional
row,EC50 [nM],SMILES
1,1 to 10,"Nc1nc2c(s1)CCC2C(=O)Nc1ccc(CC2CCC(C(O)c3cccc(Cl)c3)N2)cc1 (single isomer, unassigned) [Example 311]"
